# Experimental data: patent publication US7229762B2, “Proteomic screening for redox state dependent protein—protein interactions” (Duke University Medical Center, priority 2003, dated 2007)
# Columns and labels:
# [1] = target: T1, caspase-3 interaction with iNOS / ASM (Homo sapiens, UniProt P42574); assay: Modified yeast two-hybrid, NO-dependent growth of iNOS/caspase-3 and ASM/caspase-3 clones; type: cell-based; settings: iNOS/caspase-3 clone, presence vs absence of NO
# T1 construct: expressed in transfected cells; host or cells: Saccharomyces cerevisiae CG-1945 Δyhb1
# T1 sequence (P42574 1-277): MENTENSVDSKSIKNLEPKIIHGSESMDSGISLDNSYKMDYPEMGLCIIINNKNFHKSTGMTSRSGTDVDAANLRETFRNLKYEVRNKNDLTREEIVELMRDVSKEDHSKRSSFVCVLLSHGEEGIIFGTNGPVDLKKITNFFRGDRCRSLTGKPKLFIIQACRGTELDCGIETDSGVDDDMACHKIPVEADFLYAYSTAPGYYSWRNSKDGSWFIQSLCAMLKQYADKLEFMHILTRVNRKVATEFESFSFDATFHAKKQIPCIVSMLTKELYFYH
# Protocol: Yeast (Δyhb1) were transformed with Gal4 BD-caspase-3 plasmid (bait) and a cDNA library (Gal4 AD prey plasmids) derived from activated (NO generating) macrophages. Screening was performed as described in the methods below. DETA-NO at less than 300 μM generates NO without inhibiting yeast growth (monitored by absorbance at 600 nm). Steady state NO concentrations are maintained at ˜100 nM–1 μM range for several days as measured with an NO electrode (not shown).
# Auxotrophic selection was carried out on agar plates (15 cm in diameter) enriched in 50 mM phosphate buffer (pH 7.2; His-Trp-Leu (triple)-deficient buffered medium (TDBM)). […] Prey plasmids were isolated from positive yeast clones and then re-introduced into the bait strain to confirm bait-prey interactions. Method 2: After cells were seeded on 1.5% agar they were covered with 3% low melting point agar, which in turn was layered with culture medium. NO donors (e.g. DETA-NO; 300 μM final concentration) were added to the liquid layer every 24 hours. Colonies are grown for 4 days as described in ref 9. Method 3:
# Auxotrophic selection was carried out in TDBM. Transformation with the cDNA library was followed by overnight growth in medium deficient in tryptophan and leucine. Transformants were then grown for 3 days in His-deficient medium supplemented with DETA-NO (typically 200 μM final concentration). […]
# AIF/MIP-1α interaction = target: T2, AIF/MIP-1α interaction (UniProt O95831+P10855); assay: Modified yeast two-hybrid, NO-dependent growth of AIF/MIP-1α clone; type: cell-based; settings: 200 μM DETA-NO, 72 hrs
# T2 construct: The entire open reading frame of AIF was derived from I.M.A.G.E. clones 1520292 and 25192; expressed in transfected cells; host or cells: Saccharomyces cerevisiae Δyhb1
# T2 sequence (O95831 102-613): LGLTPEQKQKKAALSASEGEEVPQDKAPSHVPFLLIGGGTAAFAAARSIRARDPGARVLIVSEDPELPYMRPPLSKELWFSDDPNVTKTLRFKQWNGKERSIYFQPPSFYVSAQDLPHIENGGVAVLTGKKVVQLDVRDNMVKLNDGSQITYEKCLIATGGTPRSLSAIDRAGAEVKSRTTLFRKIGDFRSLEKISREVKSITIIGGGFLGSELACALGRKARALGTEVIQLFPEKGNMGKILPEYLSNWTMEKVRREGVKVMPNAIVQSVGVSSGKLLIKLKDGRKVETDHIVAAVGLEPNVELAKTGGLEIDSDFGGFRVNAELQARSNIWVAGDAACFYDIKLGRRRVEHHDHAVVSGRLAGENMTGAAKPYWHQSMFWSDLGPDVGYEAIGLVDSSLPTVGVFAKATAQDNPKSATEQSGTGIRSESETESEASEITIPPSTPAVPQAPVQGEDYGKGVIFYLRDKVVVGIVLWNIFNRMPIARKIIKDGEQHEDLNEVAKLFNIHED
# T2 sequence (P10855 24-92): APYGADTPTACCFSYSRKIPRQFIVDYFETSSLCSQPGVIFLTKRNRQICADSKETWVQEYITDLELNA
# Protocol: Yeast (Δyhb1) were transformed with Gal4 BD-AIF (Bait) and Gal4 AD-MIP-1α (Prey). (A) Robust growth of the AIF/MIP-1α clone requires NO (single asterisk, P<0.001 versus AIF/MIP-1α without NO) (n=6). […] Cells were grown in His-Trp-Leu-deficient medium at 30° C. for 72 hrs with or without 200 μM DETA-NO. (B) β-galactosidase activities in samples shown in A (single asterisk, P<0.001 vs. without NO, n=4).
# To extend the generality of our findings, 2.5 million transformants were screened from our macrophage cDNA library for NO-dependent interactions, using apoptosis-inducing factor (AIF) as bait. AIF is implicated in cell death that is independent of caspase-3, and is not known to be regulated by NO (Lipton et al., 2002). […] One of these clones contained the entire cDNA sequence of the chemokine, macrophage inflammatory protein-1 alpha (MIP-1α). Since this clone contained a few extra amino acids derived from a linker sequence, the full length MIP-1α coding sequence was amplified by PCR and cloned into the pGAD 10 vector, whose NO-dependent interaction with AIF was verified.
# ASM = target: T3, ASM (Homo sapiens, UniProt P17405); assay: ASM activity assay of purified ASM (BODIPY FL C5-sphingomyelin); type: biochemical; settings: DETA-NO 50 μM–200 μM, 30 or 60 min, pH 5.0
# T3 sequence (P17405 47-631): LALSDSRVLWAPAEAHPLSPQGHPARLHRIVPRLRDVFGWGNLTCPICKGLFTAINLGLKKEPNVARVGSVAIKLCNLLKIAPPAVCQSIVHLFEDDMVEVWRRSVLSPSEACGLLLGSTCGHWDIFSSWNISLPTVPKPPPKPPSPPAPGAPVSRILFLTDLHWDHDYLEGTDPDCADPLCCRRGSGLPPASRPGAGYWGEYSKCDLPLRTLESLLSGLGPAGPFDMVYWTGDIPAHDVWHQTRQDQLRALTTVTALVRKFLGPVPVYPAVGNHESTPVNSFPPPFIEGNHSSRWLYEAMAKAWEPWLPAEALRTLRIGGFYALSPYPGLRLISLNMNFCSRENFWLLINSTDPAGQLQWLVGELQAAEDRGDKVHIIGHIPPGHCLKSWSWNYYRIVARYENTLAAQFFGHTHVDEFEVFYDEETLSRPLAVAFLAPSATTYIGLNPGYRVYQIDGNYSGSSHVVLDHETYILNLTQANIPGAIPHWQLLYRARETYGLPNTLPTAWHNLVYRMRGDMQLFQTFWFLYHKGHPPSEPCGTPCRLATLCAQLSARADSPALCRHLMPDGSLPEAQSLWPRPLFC
# Protocol: (§1) ASM activity was measured essentially as described (E. Romiti et al., 2000), using BODIPY FL C5-sphingomyelin substrate (1.5 nmol) in assay buffer: 250 mM sodium acetate, pH 5.0, 10 mM EDTA. To assay Zn-stimulated ASM activity, 0.1 mM ZnCl was used instead of 10 mM EDTA. 30 μl sample was incubated with 70 μl assay buffer at 37° C. for 1–3 hours. Reactions were terminated by adding 1.0 ml heptane and 0.29 ml isopropyl alcohol. Phases were separated by adding 0.23 ml H2O. The heptane phase was washed with 0.23 ml H2O. The fluorescence of the organic phase (containing BODIPY FL-ceramide) was assayed at 505/514 nm excitation/emission wavelengths (slit width=2.5).
# Purified ASM protein (3.4 μg) was treated with DETA-NO (50 μM–200 μM for 30 or 60 min) and ASM activity was measured at pH 5.0 (n=3).
# [2] = target: T4, caspase-3/ASM interaction (Homo sapiens, UniProt P42574); assay: In vitro ASM/caspase-3 co-precipitation, ASM activity in caspase-3 IPs; type: binding; settings: 20 μM DETA-NO 60 min, then ASM 37° C. 2 hrs
# T4 sequence (P42574 29-277): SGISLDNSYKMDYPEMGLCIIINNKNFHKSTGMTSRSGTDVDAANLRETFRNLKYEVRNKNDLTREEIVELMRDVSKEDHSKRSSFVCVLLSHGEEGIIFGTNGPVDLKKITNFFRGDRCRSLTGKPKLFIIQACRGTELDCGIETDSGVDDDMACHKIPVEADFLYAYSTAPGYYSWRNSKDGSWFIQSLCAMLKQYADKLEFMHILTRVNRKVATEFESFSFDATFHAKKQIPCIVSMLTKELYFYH
# T4 sequence (P17405 47-631 partner): T3 sequence (P17405 47-631)
# Protocol: as §1, with “width=2.5). […]” for “width=2.5).”
# Purified caspase-3 was incubated in the presence or absence 20 μM DETA-NO for 60 min (30 nM steady state NO), followed by incubation with ASM at 37° C. for 2 hrs, and IP with caspase-3 antibody. […] The interaction of caspase-3 with ASM was measured as ASM activity in caspase-3 IP's (pH 5.0). […]
# To determine the relevant target(s) of NO, ASM/caspase-3 co-precipitations were carried out following NO treatment of each partner alone. Using an ASM activity assay, the amounts of ASM that could be precipitated with a procaspase-3 antibody was assessed from co-incubates (2 hours at 37° C.) of ASM (20 pmol) and caspase-3 in limiting amounts (2.5 pmol). […]
compound,measurement,setting,value
"[N]=O [NO, nitric oxide]",NO-dependent growth of iNOS transformant,[1],~9 fold
same,increase in growth in the presence of NO,AIF/MIP-1α interaction,8 fold
same,effect on ASM activity,ASM,no direct effect on ASM activity
same,binding of ASM to caspase-3 pretreated with NO,[2],induces binding of ASM
